The subject of test [1] is rat PBMCs. As to the kind of experiment: TNF-α release in LPS-stimulated PBMCs. The class given is cell-based. The conditions noted are these: PBMC, LPS 10 ng/mL, 18 h. As to the method:
Peripheral blood mononuclear cells (PBMCs) were isolated from the blood of healthy human volunteers and Wistar rats (250–350 gr; Charles River, Calco, Italy) using a standard density gradient centrifugation technique. The citrated blood was placed onto Histopaque^TM and centrifuged. The PBMCs were then removed from the density gradient interface and washed in phosphate-buffered saline (PBS). The PBMCs were suspended in RPMI 1640 medium (without serum), aliquoted into a 96-well plate, and incubated at 37°C for 3 h in a humidified incubator. After incubation, the medium was replaced (with a medium containing 1% fetal bovine serum), and the plate was incubated at 37°C, for 1 h, in the presence of a test compound or the appropriate vehicle. LPS (10 ng/mL), or an appropriate vehicle control, was then added to the cells, and the plate was returned to the incubator for 18 h. Cell-free supernatants were removed and assayed for TNF-α levels using MSD plates on the SECTOR Imager 6000 (Meso Scale).

The test system of test [2] is HBSMCs. The experiment in a line: CSE-evoked IL-8 release in human bronchial smooth muscle cells. Type of test: cell-based. As to the method:
Cigarette smoke extract (CSE) was generated as reported previously ([Moretto et al., 2012]). Briefly, aqueous CSE was obtained from the combustion of four cigarettes (Marlboro Red, 12 mg tar, 0.9 mg nicotine each) bubbled through 50 mL of the culture medium and subsequently filtered through a 0.2-μm-pore filter (Millipore, Billerica, MA). To ensure reproducibility among different CSE batches, the absorbance [optical density (OD)] measured at 320 nm was used as a measure of the “strength” of the extract. Dilutions were made with culture media to obtain the desired absorbance. The CSE was freshly prepared on the day of the experiment and immediately used after preparation. Human bronchial smooth muscle cells (HBSMCs) were seeded in DMEM with 10% FBS (50 U/mL penicillin, 0.05 mg/mL streptomycin, and 2 mM L-glutamine) in 48-well plates at a density of 10,000 cells/well, grown to ∼80%–90% confluence and incubated overnight in serum-free DMEM before treatments. All the treatments were performed in serum-free DMEM. The cells were pretreated for 30 min with either the vehicle or CHF6297 or losmapimod before stimulation with freshly prepared CSE, TNF-α, (1 ng/mL), or the vehicle for 18 h at 37°C. Human IL-8 was measured in the collected supernatants by use of a paired-antibody quantitative ELISA kit (BioSource International, Camarillo, CA).

Test [3] has as its system i.v. LPS-induced TNF-α in blood. As to the kind of experiment: Intravenous LPS-induced TNF-α release in rat blood. Type of test: in vivo, rats. The conditions noted are these: oral gavage, i.v. LPS.
Test [4] concerns TS-induced neutrophil influx in BALF. As to the kind of experiment: BALF neutrophilia induced by tobacco smoke exposure in mice. The conditions noted are these: 0.3 mg/kg i.n., 4 days TS exposure. The class given is in vivo, C57BL6J female mice. As to the method: C57BL6J female mice aged 9–10 weeks (Harlan Laboratories S.r.l) in groups of 8 were exposed, via whole-body inhalation, twice daily 1 h apart, for 4 consecutive days, to the tobacco smoke (TS) (generated using “Marlboro Gold: 9 mg of tar and 0.7 mg nicotine”) of two cigarettes/exposure on days 1 and 2, three cigarettes/exposure on day 3, and four cigarettes/exposure on the last exposure day in clear polycarbonate chambers (27 cm × 16 cm × 12 cm). The smoke was introduced into the exposure chambers (21100-790 Ugo Basile, Biological Research Instruments, Comerio, Varese, Italy), with the airflow generated by using a mechanical ventilator (7025 Rodent Ventilator, Ugo Basile). Each exposure chamber was connected to a different ventilator set at a rate of 100 mL/min (frequency: 50 strokes/min; volume: 2 mL/stroke). At regular intervals (after burning two cigarettes), the exposure chambers were opened and aired. Sham and control mice were exposed to air only in the same manner for the same duration of time.
CHF6297 (0.03 and 0.3 mg/kg) and budesonide (0.3 mg/kg), our reference compound and vehicle (0.2% Tween 80 in saline), respectively, were administered intranasally in a volume of 30 µL, 1 h before and 5 h after TS exposure under light isoflurane anesthesia.
A BAL was performed using a volume of 0.6 mL of phosphate-buffered saline that was gently instilled and withdrawn three times using a 12-mL syringe. BALF cells were separated by centrifugation (10 min at 3,070 g), and the supernatant was removed. The resulting cell pellet was resuspended in a known volume of PBS, and the total cell numbers were calculated by counting a stained (Turk’s stain) aliquot under a microscope using a hemacytometer. The cell pellet was resuspended to approximately 10^5 cells per ml, and cytospin slides were prepared by centrifugation (8 min at 72.26 g; Shandon Cytospin; Thermo Shandon Ltd., Runcorn, Cheshire, United Kingdom). The slides were air-dried and stained using Wright–Giemsa stain, following the manufacturer’s instructions. A differential cell count was performed using light microscopy. Approximately 400 cells were counted from each slide. The cells were identified using standard morphometric techniques.

Test [5] concerns IAV-induced airway neutrophilia in HDM-challenged mice. The experiment in a line: Influenza virus A (H3N2)-induced exacerbation in HDM-sensitized mice. Type of test: in vivo, Balb/c mice. The conditions noted are these: 100 μg/kg twice daily for 3 days.

The structures appear in SMILES notation.

With `Cc1c(F)cc(C(=O)NC2CC2)cc1-c1ccc(C(=O)NCC(C)(C)C)cn1` [losmapimod, reference compound], the IC50 in test [1] worked out at 0.0119 µM; in test [2] (Homo sapiens, 18 h), 0.00913 µM. For the same molecule, in test [2] (CSE-evoked), the “maximum inhibition of IL-8” value was determined as 100%. Further, the “effect on TNF-α levels in blood” value in test [3] is “marked reduction in TNF-α levels”.

For `CCCC1O[C@@H]2C[C@H]3[C@@H]4CCC5=CC(=O)C=C[C@]5(C)[C@H]4[C@@H](O)C[C@]3(C)[C@]2(C(=O)CO)O1` (stereo partly drawn) [budesonide, reference compound], the “neutrophils in BALF” value in test [4] was 0.5 ± 0.1 × 10^5 cells/mL. Further, the “neutrophils in BAL fluid” value in test [5] is 2.08 ± 0.23 × 10^5 cells/mL.

In general, IC50 refers to the concentration at which inhibition is half-maximal. Low readings indicate higher potency, high ones lower potency.

The values above are taken from article PMC10973839, “CHF6297: a novel potent and selective p38 MAPK inhibitor with robust anti-inflammatory activity and suitable for inhaled pulmonary administration as dry powder” (Frontiers in Pharmacology, 2024).
